Assay results taken from patent publication EP4473972A1, “COMBINATIONS COMPRISING AN ATR INHIBITOR WITH SYNERGISTIC EFFECT AGAINST GLIOMAS” (Eberhard-Karls-Universität Tübingen, priority 2023, dated 2024).

Assays:
[1] = tested on: human and murine cell lines; assay: Anti-glioma activity in vitro (Figure 1 b); format: cell-based
Method: The inventors seeded 5,000 or 10,000 cells, respectively, on day one, treated the next day in serum-free medium and incubated for up to 72 h. Subsequently, they measured cell viability using CellTiterBlue reagent (Promega, Madison, WI, US) according to manufacturer's instructions with a GloMax (Promega, Madison, Wl, US). The inventors normalized measurements to untreated cells. Cells were seeded the day before treatment. The inventors treated the cells in the indicated concentrations in serum-free medium for 24 h after which they changed the medium back to medium containing FCS, followed by a 7 to 21 day incubation time. The inventors used crystal violet (0.5% w/v) to stain colonies and analyzed the area coverage using the ImageJ software Plugln ColonyArea. Measurements were normalized to respective vehicle control wells.

[2] = tested on: LN229 cells; assay: DigiWest Multiplex Protein Analysis; format: cell-based, human; conditions: LN229, 72 h
Method: (§1) After 72 h of AZD6738 treatment, the inventors detached and counted the cells and subsequently snap froze them in liquid nitrogen. For protein preparation, they kept the cells on ice and added 20-30 µL of lysis buffer (LDS Lysis Buffer (Life Technologies, Carlsbad, CA, USA), supplemented with reducing agent (Thermo Fisher Scientific, Waltham, MA, USA) and protease- (Roche Diagnostics GmbH, Mannheim, Germany) and phosphatase-inhibitor (Roche)). Proteins were denatured by heating to 95°C for 10 min before the lysates were transferred to QiaShredder Eppendorf tubes (Eppendorf, Hamburg, Germany). After centrifugation (16,000g, 5 min, RT), eluates were stored at -80°C until further use. Protein quantification was performed using in-gel staining. 1 µL of each original lysate was diluted 1:10 (v/v) in lysis buffer. The respective aliquots were denatured for 10 mins at 70°C and 10 µL were run in a NuPAGE 4-12% Bis-Tris precast gel (Thermo Fisher Scientific) according to the manufacturer's instructions. The gel was washed with water and proteins were stained with BlueBandit (VWR, Darmstadt, Germany) for 1 h. The gel was de-stained over night with ddH2O before detection on a LI-COR (LI-COR, Bad Homburg, Germany) instrument. Analysis and protein quantification was performed using ImageStudio.
(§2) The DigiWest analysis was performed as described in the art. In brief, the inventors loaded 10 µg of cellular protein on an SDS-polyacrylamide gel and size-separated them using the commercial NuPAGE system (Life Technologies). Size-separated proteins were blotted onto a PVDF membrane and biotinylated on the membrane using NHS-PEG12-Biotin (50 µM) in PBST for 1 h. After drying of the membrane, the samples lanes were cut into 96 strips of 0.5 mm width using an automated cutting plotter (Silhouette America, West Orem, UT, USA) each corresponding to a defined molecular weight fraction. Each of the strips was placed in one well of a 96-well plate and 10 µl elution buffer (8 M urea, 1% Triton-X100 in 100 mM Tris-HCl pH 9.5) was added. The eluted proteins were diluted with 90 µl of dilution buffer (5% BSA in PBS, 0.02% sodium azide, 0.05% Tween-20) and each of the protein fractions was incubated with 1 distinct magnetic color-coded bead population (Luminex, Austin, USA) coated with neutravidin. The biotinylated proteins bind to the neutravidin beads such that each bead color represents proteins of one specific molecular weight fraction. All 96 protein loaded bead populations were mixed resulting in reconstitution of the original lane. Such a beadmix was sufficient for about 150 individual antibody incubations. Aliquots of the DigiWest bead-mixes (about 1/200th per well) were added to 96 well plates containing 50 µl assay buffer (Blocking Reagent for ELISA (Roche, Rotkreuz, Switzerland) supplemented with 0.2% milk powder, 0.05% Tween-20 and 0.02% sodium azide) and different diluted antibodies were added to the wells. After overnight incubation at 15°C in a shaker, the bead-mixes were washed twice with PBST and species-specific PE-labelled (Phycoerythrin) secondary antibodies (Dianova, Hamburg, Germany) were added and incubated for 1 hour at 23°C. Beads were washed twice prior to readout on a Luminex FlexMAP 3D.
(§3) For quantification of the antibody specific signals, we used the DigiWest Analyzer software; it automatically identifies peaks of appropriate molecular weight and calculates the peak area. Signal intensity was normalized to the total amount of protein loaded onto one lane. The software package MEV 4.9.0 was used for statistical analysis along with Graph Pad Prism (Version 9.0.0). For all statistical tests, a p-value <0.05 was considered significant.

[3] = tested on: LNZ308 cells; assay: DigiWest Multiplex Protein Analysis; format: cell-based, human; conditions: LNZ308, 72 h
Method: as §1, §2, §3

[4] = tested on: GL261 cells; assay: Cell cycle analysis (propidium iodide flow cytometry); format: cell-based, murine; conditions: 72 h
Method: The inventors seeded the cells on day one and treated them on the next day. After 72 h, they detached the cells and stained them with propidium iodide solution (50 µg/mL propidium iodide (Thermo Fisher Scientific, Waltham, MA, US), 0.2% Triton X-100 (Roth, Karlsruhe, Germany), 100 µg RNase (Thermo Fisher Scientific, Waltham, MA, US), 1 g/L glucose in PBS (phosphate buffered saline) (Gibco, Carlsbad, CA, US). Flow cytometry was done using a MACSQuant Analyzer 10 (Miltenyi Biotec, Bergisch Gladbach, Germany). The inventors analyzed the acquired data with the FlowJo software (Beckton, Dickinson & Company, Franklin Lakes, NJ, US).

[5] = tested on: LN229 cells; assay: RNA-Sequencing (RNAseq); format: cell-based, human
Method: (§4) For this, the inventors seeded the cells on day one and treated them on the next day with IC50 concentrations of AZD6738 for up to 72 h. They extracted the RNA using the Qiagen RNeasy Mini kit (Qiagen, Venlo, NL) according to manufacturer's protocol. For RNA sequencing, the inventors enriched the mRNA fraction using polyA capture from 200 ng of total RNA using the NEBNext Poly(A) mRNA Magnetic Isolation Module (NEB). They used the NEB Next Ultra II Directional RNA Library Prep Kit for Illumina (NEB) to prepare mRNA libraries according to manufacturer's instructions. The libraries were sequenced as paired-end 50 bp reads on an Illumina NovaSeq6000 (Illumina) with a sequencing depth of approximately 25 million clusters per sample. The inventors performed RNA raw data QC and processing using megSAP (version 0.2-135-gd002274) combined with ngs-bits package (version 2019_11-42-gflb98e63). To align the reads to the GRCh38 they used STAR v2.7.3a and alignment quality was analyzed using ngs-bits. Normalized read counts for all genes were obtained using Subread (v2.0.0) and edgeR (v3.26.6). The inventors used the R package "DESeq2" for further analyses. They defined differentially expressed genes (DEGs) as log2 fold-change (LFC) above or below |1| and p-adjusted < 0.01 as defined by Wald statistics. The inventors analyzed the resulting hits for KEGG pathway association using gProfiler. […] They re-aligned significant LRT genes with DEG results and analyzed them with gProfiler.

[6] = tested on: LNZ308 cells; assay: RNA-Sequencing (RNAseq); format: cell-based, human
Method: as §4

Structure (SMILES): C[C@@H]1COCCN1c1cc(C2([S@](C)(=N)=O)CC2)nc(-c2cc[nH]c3nccc2-3)n1 [AZD6738, ceralasertib]
- anti-glioma activity in vitro [1]: significant anti-glioma activity
- CDC25C and pHistH3 (Ser10) [2]: downregulated
- Survivin (BIRC5) [2]: upregulated
- p53, p21 and Bax [2]: upregulation
- pAkt [2]: downregulation
- p16 [3]: accumulation
- pCDK2 (Thr160) protein levels [3]: reduced
- cell cycle alterations [4]: accumulation in S phase
- PI3K-Akt signaling (KEGG pathway) [5]: downregulated
- p53 signaling (KEGG pathway) [5]: strongly upregulated
- PI3K-Akt signaling (KEGG pathway) [6]: upregulated
